Assay results: PubChem BioAssay (NCI)
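Tested at 5 concentrations; 48 h exposure; 96-well plates; endpoints linearly interpolated, else capped at highest concentration. GI50: concentration for 50% inhibition of growth. TGI is the concentration that stops growth completely.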

Columns and labels:
Assay in all cases: NCI-60 cell line screen, 48 h
CCRF-CEM leukemia = test system: CCRF-CEM leukemia
NCI-H226 lung = test system: NCI-H226 lung
OVCAR-8 ovarian = test system: OVCAR-8 ovarian
RPMI-8226 leukemia = test system: RPMI-8226 leukemia
SF-539 CNS = test system: SF-539 CNS
UACC-257 melanoma = test system: UACC-257 melanoma
OVCAR-3 ovarian = test system: OVCAR-3 ovarian
NCI-H23 lung = test system: NCI-H23 lung
BT-549 breast = test system: BT-549 breast
MDA-MB-435 = test system: MDA-MB-435

Structure (SMILES)	TGI (CCRF-CEM leukemia) [µM]	TGI (NCI-H226 lung) [µM]	TGI (OVCAR-8 ovarian) [µM]	TGI (RPMI-8226 leukemia) [µM]	TGI (SF-539 CNS) [µM]	TGI (UACC-257 melanoma) [µM]	GI50 (CCRF-CEM leukemia) [µM]	GI50 (NCI-H226 lung) [µM]	GI50 (OVCAR-3 ovarian) [µM]	TGI (OVCAR-3 ovarian) [µM]	GI50 (OVCAR-8 ovarian) [µM]	GI50 (RPMI-8226 leukemia) [µM]	GI50 (SF-539 CNS) [µM]	GI50 (UACC-257 melanoma) [µM]	TGI (NCI-H23 lung) [µM]	GI50 (BT-549 breast) [µM]	TGI (BT-549 breast) [µM]	GI50 (MDA-MB-435) [µM]	TGI (MDA-MB-435) [µM]	GI50 (NCI-H23 lung) [µM]
O=C1C2C3CC4C5C3C1C5C1(SCCS1)C42 (stereo not given)	> 100	> 100	> 100	> 100	> 100	> 100														
CN(C)CCC(N)(P(=O)([O-])[O-])P(=O)([O-])[O-].N.N.[Pt+2]	> 100	> 100	> 100	> 100	> 100	> 100	> 100	> 100	> 100	> 100	> 100	> 100	> 100	> 100						
CC(=O)OC(C)(C)C1CC[C@]2(C)/C=C/C(C)C[C@@H](O)/C=C(\C)CC(O)C12 (stereo not given in full)	> 100	> 100	> 100	> 100	> 100	> 100				> 100					> 100					
C/C(CN1C(=O)c2ccccc2C1=O)=N\NS(=O)(=O)c1ccc2ccccc2c1	> 100	> 100	> 100	> 100	> 100	> 100				> 100					> 100					
COc1ccc(-c2csc3c2-n2cccc2C3=O)cc1	> 100		> 100		2.39		0.0299	0.0174		0.264	0.068	0.0259			> 100	0.0492				
C=CCc1cccc(C=O)c1O	> 100	> 100	> 100	> 100	> 100	> 100	4	> 100			39.5	7.72	30.1	> 100	> 100	10.4	> 100	> 100	> 100	> 100
NC1=C(O)c2cccc3cccc(c23)C1=O	> 100	> 100	> 100	> 100	> 100	> 100				> 100					> 100					
O=C(O)/C=C\C(=O)Nc1ccc2c(c1)-c1ccccc1C2	> 100	78.2	> 100	> 100		> 100				> 100					> 100		> 100		> 100	
Cc1cc(N(CCC#N)CCC#N)ccc1/C=C(\NC(=O)/C=C/c1ccccc1)C(=O)N=[N+]=[N-]	> 100	> 100	> 100	> 100	> 100	> 100				> 100					> 100					
N#CC(C(=O)CCCC(=O)Nc1ccccc1[N+](=O)[O-])c1c(Cl)cccc1Cl (stereo not given)	> 100	> 100	> 100	> 100	> 100	> 100				> 100					> 100					
COc1ccc2c(c1)[C@@H](NC(C)=O)CCc1cc(OC)c(OC)c(OC)c1-2	> 100	> 16.3	1.27	> 100	< 0.0154	> 100				< 0.215					2.88				0.0244	
Nc1c(C(=O)Nc2cccc(Cl)c2)sc2nc3c(cc12)C(=O)CCC3	> 100	> 100	> 100		> 100	> 100	0.383	11.1	0.305	> 100	> 41.3		0.586	> 100	> 100	0.948	> 100	0.0563	0.284	0.751
NC(N)NCCCc1cn2c(n1)C1CCCN1C(=O)C2Cc1ccccc1 (stereo not given)	> 100	> 100	> 100	> 100	> 100	> 100				> 100					> 100					
O=C(O)/C=C/c1ccc(O)c(O)c1	> 100	> 100	> 100	> 100	> 100	> 100				> 100					> 100					
COC(=O)N[C@H]1CCc2cc(OC)c(OC)c(OC)c2-c2ccc(SC)c(=O)cc21	> 100		> 100	> 64.5		> 100	< 0.01	< 0.01	< 0.01		< 0.01	< 0.01	< 0.01	50.7	> 100	< 0.01	11			< 0.01
C=CC1(C)CCC2C(=CCC3C2(C)CC(O)C(O)C3(C)COC2OC(CO)C(O)C(O)C2O)C1 (stereo not given)	> 100	> 100	> 100		> 100	> 100									> 100		> 100		> 100	
O=S1OC(c2ccccc2)(c2ccccc2)C(c2ccccc2)(c2ccccc2)O1	> 100	> 100	> 100	> 49.4	> 100	> 100				> 100					> 100					
O=C(O)c1ccc(N(/C=C/C(=O)C(F)(F)F)Cc2ccc(Cl)cc2)cc1	> 100		78.4	> 100	42.1	86.8	25.8		25.8	72.5	26.1	29.8	19	30.7	64.8	38.7	67	35.5	> 100	24.7
COc1ccc(C2COc3c(ccc(OC)c3OC)C2=O)cc1OC (stereo not given)	> 100	> 100	> 100	> 100	> 100	> 100				> 100					> 100					
COc1nc(NC2OC(COC(C)=O)C(OC(C)=O)C(OC(C)=O)C2OC(C)=O)c(N=CC=Nc2c(NC3OC(COC(C)=O)C(OC(C)=O)C(OC(C)=O)C3OC(C)=O)nc(OC)[nH]c2=O)c(=O)[nH]1 (stereo not given)	> 100	> 100	> 100	> 100	> 100	> 100				> 100					> 100					
